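Exposure lasted 48 hours, with cells grown in 96-well plates and compounds tested at five concentrations. Here, GI50 denotes the concentration required for 50% inhibition of growth.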 Activity calls are given as the source filed them. Rule as the data show it: active = GI50 up to about 1.1 µM and inactive = higher.
Assays:
Test in all cases: inhibition of tumour cell growth, NCI panel, 48 h
OVCAR-4 = system: OVCAR-4
OVCAR-5 = system: OVCAR-5
A498 = system: A498
MOLT-4 = system: MOLT-4
EKVX = system: EKVX
UACC-257 = system: UACC-257
UO-31 = system: UO-31
DU-145 = system: DU-145
K562 = system: K562
OVCAR-8 = system: OVCAR-8
MDA-MB-435 = system: MDA-MB-435
T47D = system: T47D
HL-60 = system: HL-60
Malme-3M = system: Malme-3M
NCI-H522 = system: NCI-H522
IGROV-1 = system: IGROV-1
NCI-H226 = system: NCI-H226
KM12 = system: KM12
MDA-N = system: MDA-N
SF-539 = system: SF-539

Measured: GI50

Cc1nnc(N)nc1/C=C\c1cccs1
inactive: OVCAR-4 21.6 µM | OVCAR-5 21.8 µM | A498 22 µM | MOLT-4 32.3 µM | EKVX 13.3 µM | UACC-257 32.6 µM | UO-31 10.1 µM | DU-145 79.6 µM | K562 23.4 µM | OVCAR-8 17 µM | MDA-MB-435 18 µM | T47D 46.9 µM | HL-60 6.11 µM | Malme-3M 13.4 µM | NCI-H522 4.06 µM | IGROV-1 12 µM | NCI-H226 17.5 µM | KM12 16.8 µM

COc1ccc2c(c1)CN1C(=N2)CSC1c1cc([N+](=O)[O-])ccc1Cl (stereo not drawn)
inactive: MDA-N 17.8 µM | OVCAR-4 39.1 µM | OVCAR-5 58.5 µM | MOLT-4 29.2 µM | EKVX 23.6 µM | SF-539 28.5 µM | UACC-257 38.1 µM | UO-31 41.1 µM | K562 10.8 µM | OVCAR-8 48.8 µM | MDA-MB-435 19.4 µM | T47D 32.4 µM | HL-60 16.8 µM | Malme-3M 55.8 µM | NCI-H522 32.3 µM | IGROV-1 58.7 µM | NCI-H226 42 µM | KM12 28.1 µM

CSCCC(NC(=O)Cc1ccc(C(=O)c2ccccc2)cc1)C(=O)N1CCN(CCCCN2c3ccccc3Sc3cc(N=[N+]=[N-])ccc32)CC1 (stereo not drawn)
inactive: OVCAR-4 16.5 µM | OVCAR-5 > 100 µM | A498 72.3 µM | MOLT-4 > 100 µM | EKVX > 100 µM | UACC-257 > 100 µM | UO-31 34.8 µM | DU-145 47 µM | K562 > 100 µM | HL-60 30.6 µM | Malme-3M > 100 µM | NCI-H522 92 µM | IGROV-1 > 100 µM | NCI-H226 78.2 µM | KM12 20.4 µM

Nc1ccccc1/C=C\c1ccccc1
inactive: MDA-N > 100 µM | OVCAR-5 > 100 µM | MOLT-4 > 100 µM | EKVX > 100 µM | SF-539 > 100 µM | UACC-257 > 100 µM | UO-31 > 100 µM | DU-145 > 100 µM | K562 > 100 µM | OVCAR-8 > 100 µM | MDA-MB-435 > 100 µM | T47D > 100 µM | HL-60 > 100 µM | Malme-3M > 100 µM | IGROV-1 > 100 µM | NCI-H226 > 100 µM | KM12 > 100 µM

O=C(COc1ccc(Cl)cc1)N1N=C(c2ccc(Cl)cc2)CC1(O)c1ccccc1 (stereo not drawn)
inactive: OVCAR-4 7.48 µM | OVCAR-5 21.7 µM | A498 13.5 µM | MOLT-4 4.95 µM | EKVX 30 µM | SF-539 24.8 µM | UACC-257 15.8 µM | UO-31 > 23.7 µM | K562 9.73 µM | OVCAR-8 15.2 µM | HL-60 6.5 µM | Malme-3M 20.2 µM | NCI-H522 14.3 µM | IGROV-1 18.5 µM | NCI-H226 22.3 µM | KM12 14.2 µM

N#CC(N)(C(=O)C(=O)NCCCNC(=O)C(=O)C(N)(C#N)c1ccc(Cl)cc1)c1ccc(Cl)cc1 (stereo not drawn)
inactive: OVCAR-4 > 100 µM | OVCAR-5 > 100 µM | A498 > 100 µM | MOLT-4 > 100 µM | EKVX > 100 µM | SF-539 > 100 µM | UACC-257 > 100 µM | UO-31 > 100 µM | K562 95.3 µM | OVCAR-8 > 100 µM | HL-60 54.7 µM | Malme-3M > 100 µM | NCI-H522 > 100 µM | IGROV-1 > 100 µM | NCI-H226 > 100 µM | KM12 > 100 µM

CC1=CCC2(C#N)CCC1C2=O (stereo not drawn)
inactive: OVCAR-4 > 100 µM | OVCAR-5 > 100 µM | A498 > 100 µM | MOLT-4 > 100 µM | EKVX > 100 µM | SF-539 > 100 µM | UACC-257 > 100 µM | UO-31 > 100 µM | K562 > 100 µM | OVCAR-8 > 100 µM | HL-60 > 100 µM | Malme-3M > 100 µM | NCI-H522 > 100 µM | IGROV-1 > 100 µM | NCI-H226 > 100 µM | KM12 > 100 µM

NS(=O)(=O)c1ccc(NC(=O)COC(=O)c2cccc3c(=O)c4ccccc4[nH]c23)cc1
inactive: OVCAR-4 25.5 µM | OVCAR-5 > 56.5 µM | A498 17.9 µM | MOLT-4 14.3 µM | EKVX 38.2 µM | SF-539 16.3 µM | UACC-257 57.3 µM | UO-31 23.3 µM | K562 > 100 µM | OVCAR-8 20.7 µM | HL-60 > 100 µM | Malme-3M 17.9 µM | NCI-H522 12.3 µM | IGROV-1 21.5 µM | NCI-H226 19.6 µM | KM12 31.6 µM

Cn1c2ccc3cc2c(=S)c2cc(ccc21)OCCOCCOCCOCCOCCOCCO3
inactive: MDA-N > 10 µM | OVCAR-4 > 10 µM | OVCAR-5 > 10 µM | A498 > 10 µM | MOLT-4 > 10 µM | EKVX > 10 µM | SF-539 > 10 µM | UACC-257 > 10 µM | UO-31 > 10 µM | DU-145 > 10 µM | K562 > 10 µM | OVCAR-8 > 10 µM | T47D > 10 µM | HL-60 > 10 µM | Malme-3M > 10 µM | NCI-H522 > 10 µM | IGROV-1 > 10 µM | NCI-H226 > 10 µM | KM12 > 10 µM

COc1ccc(CCCN2c3ccccc3Sc3ccccc32)cc1
inactive: OVCAR-4 53.2 µM | OVCAR-5 > 100 µM | A498 > 100 µM | MOLT-4 19.6 µM | EKVX > 100 µM | SF-539 > 100 µM | UACC-257 > 100 µM | UO-31 > 100 µM | K562 17.3 µM | OVCAR-8 > 100 µM | HL-60 41.3 µM | Malme-3M > 100 µM | NCI-H522 33.1 µM | IGROV-1 > 100 µM | NCI-H226 > 100 µM | KM12 > 100 µM

O=C1C=CC(=O)N1Nc1ccc([N+](=O)[O-])cc1[N+](=O)[O-]
inactive: OVCAR-4 > 42.3 µM | OVCAR-5 > 100 µM | A498 62.1 µM | MOLT-4 33.3 µM | EKVX > 100 µM | SF-539 > 100 µM | UACC-257 > 56.2 µM | UO-31 > 100 µM | K562 > 42.4 µM | OVCAR-8 > 100 µM | HL-60 25.8 µM | Malme-3M 16.8 µM | NCI-H522 > 42.7 µM | IGROV-1 > 100 µM | NCI-H226 97.1 µM | KM12 > 100 µM

C1CCN(c2nsc(N3CCCCC3)n2)CC1
inactive: OVCAR-4 > 100 µM | OVCAR-5 > 100 µM | A498 > 100 µM | MOLT-4 > 100 µM | EKVX > 100 µM | SF-539 > 100 µM | UACC-257 > 100 µM | UO-31 > 100 µM | K562 > 100 µM | OVCAR-8 > 100 µM | HL-60 92 µM | Malme-3M > 100 µM | NCI-H522 > 100 µM | IGROV-1 > 100 µM | NCI-H226 > 100 µM | KM12 > 100 µM

Nc1nc(-c2ccccc2)cc(-c2cc(Cl)ccc2O)n1
inactive: OVCAR-4 63.8 µM | OVCAR-5 > 100 µM | A498 > 100 µM | MOLT-4 > 100 µM | EKVX 46.9 µM | SF-539 31.6 µM | UACC-257 > 100 µM | UO-31 39.9 µM | K562 > 100 µM | OVCAR-8 32.9 µM | HL-60 > 100 µM | Malme-3M > 100 µM | NCI-H522 25.9 µM | IGROV-1 49.3 µM | NCI-H226 > 100 µM | KM12 50.9 µM

Clc1ccc2c(c1)[nH]c1c2nc2sccn21
inactive: OVCAR-4 > 100 µM | OVCAR-5 > 100 µM | A498 > 100 µM | MOLT-4 > 100 µM | EKVX > 100 µM | SF-539 > 100 µM | UACC-257 > 100 µM | UO-31 > 100 µM | K562 > 100 µM | OVCAR-8 > 100 µM | HL-60 > 100 µM | Malme-3M > 100 µM | NCI-H522 > 100 µM | IGROV-1 > 100 µM | NCI-H226 > 100 µM | KM12 > 100 µM

CC(C(=O)Oc1ccc2ccccc2c1-c1c(O)ccc2ccccc12)c1ccccc1 (stereo not drawn)
inactive: OVCAR-4 10.9 µM | OVCAR-5 16.9 µM | A498 15.9 µM | MOLT-4 7.67 µM | EKVX 16.8 µM | SF-539 16.3 µM | UACC-257 13.7 µM | UO-31 1.37 µM | K562 15 µM | OVCAR-8 18.8 µM | HL-60 13.2 µM | Malme-3M 17.4 µM | NCI-H522 > 10 µM | IGROV-1 17.1 µM | NCI-H226 10.1 µM | KM12 11.4 µM

CC1=C(C(=O)Nc2ccc([N+](=O)[O-])cc2)C(c2ccco2)C(C(=O)Nc2ccc([N+](=O)[O-])cc2)=C(C)N1
inactive: OVCAR-4 3.88 µM | OVCAR-5 30.9 µM | A498 10.5 µM | MOLT-4 4.33 µM | EKVX 3.63 µM | SF-539 16.5 µM | UACC-257 18.5 µM | UO-31 7.24 µM | K562 6.37 µM | OVCAR-8 26.9 µM | HL-60 5.18 µM | Malme-3M 12.4 µM | NCI-H522 12.4 µM | IGROV-1 14.9 µM | NCI-H226 19.1 µM | KM12 6.41 µM

Reference: ChEMBL document CHEMBL1201862, “PubChem BioAssay data set” (2004)
